Assay results as given in US9464075B2 (priority 2008, dated 2016).

Assays:
A/M2-L26F = A/M2-L26F (Influenza A virus, UniProt P0DOF5, L26F); assay type: cell-based, Influenza virus A/Udorn/72
A/M2-V27A [1] = biological target: T1, A/M2-V27A (Influenza A virus, UniProt P0DOF5, V27A); assay type: cell-based, Influenza virus A/Udorn/72
A/M2-V27G = A/M2-V27G (Influenza A virus, UniProt P0DOF5, V27G); assay type: cell-based, Influenza virus A/Udorn/72
A/M2-A30T = A/M2-A30T (Influenza A virus, UniProt P0DOF5, A30T); assay type: cell-based, Influenza virus A/Udorn/72
A/M2-S31N = A/M2-S31N (Influenza A virus, UniProt P0DOF5, S31N); assay type: cell-based, Influenza virus A/Udorn/72
A/M2-G34E = A/M2-G34E (Influenza A virus, UniProt P0DOF5, G34E); assay type: cell-based, Influenza virus A/Udorn/72
[2] = system: influenza virus, containing the A/M2-V27A mutation; assay type: cell-based
A/M2-V27A [3] = biological target: T1, A/M2-V27A; assay type: cell-based

| SMILES | % remaining activity after application of 100 μM compound (A/M2-L26F) [%] | % remaining activity after application of 100 μM compound (A/M2-V27A [1]) [%] | % remaining activity after application of 100 μM compound (A/M2-V27G) [%] | % remaining activity after application of 100 μM compound (A/M2-A30T) [%] | % remaining activity after application of 100 μM compound (A/M2-S31N) [%] | % remaining activity after application of 100 μM compound (A/M2-G34E) [%] | inhibition of plaque formation (in words) [2] | AM2 V27A % inhibition at 100 μM (A/M2-V27A [3]) | inhibition of the mutant (in words) (A/M2-S31N) | concentration at which plaque formation was reduced [2] [µM] |
| --- | --- | --- | --- | --- | --- | --- | --- | --- | --- | --- |
| C1CCC2(CC1)CCN(C1=NCCN1)CC2 [BL-1743, 3-(4,5-Dihydro-1H-imidazol-2-yl)-3-aza-spiro[5.5]undecane, reference compound] | 89.2 ± 4.8 | 97.4 ± 1.8 | 82.9 ± 9.3 | 102 ± 2.3 | 100 ± 0.67 | 89.8 ± 6.9 | failed to inhibit plaque formation | – | – | – |
| N=C(N)NC1CCC2(CCCCC2)CC1 [Compound 35] | – | – | – | – | – | – | – | 35 (14.6%) | – | – |
| CNC1CCC2(CCCCC2)CC1.Cl [Compound 9] | 72.6 ± 8.4 | 70.2 ± 1.55 | 89.6 ± 4.1 | 101. ± 3.2 | 100 ± 4.1 | 101.7 ± 2.8 | – | – | – | – |
| Cl.NC1CSC2(CCCCC2)SC1 [Compound 33, 1,5-Dithia-spiro[5.5]undec-3-yl-ammonium chloride] | – | – | – | – | – | – | – | 33 (0%) 34 (46.9%) | – | – |
| Cl.NNC1CCC2(CCCCC2)CC1 [Compound 31, N′-Spiro[5.5]undec-3-yl-hydrazinium chloride] | – | – | – | – | – | – | – | 31 (7.1%) | – | – |
| Cl.NC1CCC2(CCCCC2)CC1 [Compound 8] | 32.4 ± 3.3 | 46.6 ± 6.6 | 87.9 ± 6.1 | 98.1 ± 7.0 | 99.1 ± 0.9 | 96. ± 5.9 | – | – | little inhibition | 5 |
| NC12CC3CC(CC(C3)C1)C2 [Amantadine, reference compound] | 51.8 ± 3.5 | 93.07 ± 1.9 | 95 ± 4.9 | 104.6 ± 4.3 | 65.3 ± 2.7 | 100.4 ± 6.7 | failed to inhibit plaque formation | – | – | – |
| NC1CSC2(CCCCCC2)SC1 [Compound 34, 1,5-Dithia-spiro[5.6]dodec-3-yl-ammonium chloride] | – | – | – | – | – | – | – | 33 (0%) 34 (46.9%) | – | – |
